# According to ChEMBL document CHEMBL2440100, “Therapeutic potential of the peptide leucine arginine as a new nonplant bowman-birk-like serine protease inhibitor” (J Med Chem, 2013):
# Where a SMILES comes first, the peptide text is derived from it. Bridges are numbered along the chain shown (N, C = ends).
# Test: Inhibition of bovine trypsin using benzoyl-L-arginine p-nitroanilide as substrate after 5 to 60 mins
# Design: species or system Bos taurus
row,Structure (SMILES),Ki [µM]
1,CC(C)C[C@H](N)C(=O)N[C@H](C(=O)N[C@@H](CCCNC(=N)N)C(=O)NCC(=O)N[C@H]1CSSC[C@@H](C(=O)O)NC(=O)[C@@H]2CCCN2C(=O)[C@H](CCCCN)NC(=O)[C@@H]2CCCN2C(=O)[C@@H]2CCCN2C(=O)[C@H](Cc2ccc(O)cc2)NC(=O)[C@H](CO)NC(=O)[C@H](CCCCN)NC(=O)[C@H]([C@@H](C)O)NC(=O)[C@H](Cc2c[nH]c3ccccc23)NC1=O)C(C)C (H-LVRGCWTKSYPPKPC-OH; disulfide 5-15),0.322
2,CC(C)C[C@H](N)C(=O)N[C@H](C(=O)N[C@@H](CCCNC(=N)N)C(=O)NCC(=O)N[C@H]1CSSC[C@@H](C(=O)N[C@@H](Cc2ccccc2)C(=O)N[C@H](C(=O)N[C@@H](CCCNC(=N)N)C(=O)O)C(C)C)NC(=O)[C@@H]2CCCN2C(=O)[C@H](CCCCN)NC(=O)[C@@H]2CCCN2C(=O)[C@@H]2CCCN2C(=O)[C@H](Cc2ccc(O)cc2)NC(=O)[C@H](C)NC(=O)[C@H](CCCCN)NC(=O)[C@H]([C@@H](C)O)NC(=O)[C@H](Cc2c[nH]c3ccccc23)NC1=O)C(C)C (H-LVRGCWTKAYPPKPCFVR-OH; disulfide 5-15),0.245
3,CC(C)C[C@H](N)C(=O)N[C@H](C(=O)N[C@@H](CCCNC(=N)N)C(=O)NCC(=O)N[C@H]1CSSC[C@@H](C(=O)N[C@@H](Cc2ccccc2)C(=O)N[C@H](C(=O)N[C@@H](CCCNC(=N)N)C(=O)O)C(C)C)NC(=O)[C@H](CCCCN)NC(=O)[C@@H]2CCCN2C(=O)[C@@H]2CCCN2C(=O)[C@H](Cc2ccc(O)cc2)NC(=O)[C@H](CO)NC(=O)[C@H](CCCCN)NC(=O)[C@H]([C@@H](C)O)NC1=O)C(C)C (H-LVRGCTKSYPPKCFVR-OH; disulfide 5-13),0.245
4,CC(C)C[C@H](N)C(=O)N[C@H](C(=O)N[C@@H](CCCNC(=N)N)C(=O)NCC(=O)N[C@H]1CSSC[C@@H](C(=O)N[C@@H](Cc2ccccc2)C(=O)N[C@H](C(=O)N[C@@H](CCCNC(=N)N)C(=O)O)C(C)C)NC(=O)[C@@H]2CCCN2C(=O)[C@H](CCCCN)NC(=O)[C@@H]2CCCN2C(=O)[C@@H]2CCCN2C(=O)[C@H](C)NC(=O)[C@H](CO)NC(=O)[C@H](CCCCN)NC(=O)[C@H]([C@@H](C)O)NC(=O)[C@H](Cc2c[nH]c3ccccc23)NC1=O)C(C)C (H-LVRGCWTKSAPPKPCFVR-OH; disulfide 5-15),0.142
5,C[C@@H](O)[C@@H]1NC(=O)[C@H](Cc2c[nH]c3ccccc23)NC(=O)[C@@H](N)CSSC[C@@H](C(=O)O)NC(=O)[C@@H]2CCCN2C(=O)[C@H](CCCCN)NC(=O)[C@@H]2CCCN2C(=O)[C@@H]2CCCN2C(=O)[C@H](Cc2ccc(O)cc2)NC(=O)[C@H](CO)NC(=O)[C@H](CCCCN)NC1=O,0.335
6,CC(C)C[C@H](N)C(=O)N[C@H](C(=O)N[C@@H](CCCNC(=N)N)C(=O)NCC(=O)N[C@H]1CSSC[C@@H](C(=O)N[C@@H](Cc2ccccc2)C(=O)N[C@H](C(=O)N[C@@H](CCCNC(=N)N)C(=O)O)C(C)C)NC(=O)[C@@H]2CCCN2C(=O)[C@H](CCCCN)NC(=O)[C@H](C)NC(=O)[C@@H]2CCCN2C(=O)[C@H](Cc2ccc(O)cc2)NC(=O)[C@H](CO)NC(=O)[C@H](CCCCN)NC(=O)[C@H]([C@@H](C)O)NC(=O)[C@H](Cc2c[nH]c3ccccc23)NC1=O)C(C)C (H-LVRGCWTKSYPAKPCFVR-OH; disulfide 5-15),0.155
7,CC(C)C[C@H](N)C(=O)N[C@H](C(=O)N[C@@H](CCCNC(=N)N)C(=O)NCC(=O)N[C@H]1CSSC[C@@H](C(=O)N[C@@H](Cc2ccccc2)C(=O)N[C@H](C(=O)N[C@@H](CCCNC(=N)N)C(=O)O)C(C)C)NC(=O)[C@@H]2CCCN2C(=O)[C@H](CCCCN)NC(=O)[C@@H]2CCCN2C(=O)[C@@H]2CCCN2C(=O)[C@H](Cc2ccc(O)cc2)NC(=O)[C@H](CO)NC(=O)[C@H](CCCCN)NC(=O)[C@H](C)NC(=O)[C@H](Cc2c[nH]c3ccccc23)NC1=O)C(C)C (H-LVRGCWAKSYPPKPCFVR-OH; disulfide 5-15),1.11
8,CC(C)C[C@H](N)C(=O)N[C@H](C(=O)N[C@@H](CCCNC(=N)N)C(=O)NCC(=O)N[C@H]1CSSC[C@@H](C(=O)N[C@@H](Cc2ccccc2)C(=O)N[C@H](C(=O)N[C@@H](CCCNC(=N)N)C(=O)O)C(C)C)NC(=O)[C@H](C)NC(=O)[C@H](CCCCN)NC(=O)[C@@H]2CCCN2C(=O)[C@@H]2CCCN2C(=O)[C@H](Cc2ccc(O)cc2)NC(=O)[C@H](CO)NC(=O)[C@H](CCCCN)NC(=O)[C@H]([C@@H](C)O)NC(=O)[C@H](Cc2c[nH]c3ccccc23)NC1=O)C(C)C (H-LVRGCWTKSYPPKACFVR-OH; disulfide 5-15),0.252
9,CC(C)C[C@H](N)C(=O)N[C@H](C(=O)N[C@@H](CCCNC(=N)N)C(=O)NCC(=O)N[C@H]1CSSC[C@@H](C(=O)N[C@@H](Cc2ccccc2)C(=O)N[C@H](C(=O)N[C@@H](CCCNC(=N)N)C(=O)O)C(C)C)NC(=O)[C@@H]2CCCN2C(=O)[C@H](C)NC(=O)[C@@H]2CCCN2C(=O)[C@@H]2CCCN2C(=O)[C@H](Cc2ccc(O)cc2)NC(=O)[C@H](CO)NC(=O)[C@H](CCCCN)NC(=O)[C@H]([C@@H](C)O)NC(=O)[C@H](Cc2c[nH]c3ccccc23)NC1=O)C(C)C (H-LVRGCWTKSYPPAPCFVR-OH; disulfide 5-15),0.4
10,CC(C)C[C@H](N)C(=O)N[C@H](C(=O)N[C@@H](CCCNC(=N)N)C(=O)NCC(=O)N[C@H]1CSSC[C@@H](C(=O)N[C@@H](Cc2ccccc2)C(=O)N[C@H](C(=O)N[C@@H](CCCNC(=N)N)C(=O)O)C(C)C)NC(=O)[C@@H]2CCCN2C(=O)[C@H](CCCCN)NC(=O)[C@@H]2CCCN2C(=O)[C@@H]2CCCN2C(=O)[C@H](Cc2ccc(O)cc2)NC(=O)[C@H](CO)NC(=O)[C@H](CCCCN)NC(=O)[C@H]([C@@H](C)O)NC(=O)[C@H](C)NC1=O)C(C)C (H-LVRGCATKSYPPKPCFVR-OH; disulfide 5-15),0.67
11,C[C@H](NC(=O)[C@@H](N)CO)C(=O)N1CCC[C@H]1C(=O)N[C@@H](CCCNC(=N)N)C(=O)NCC(=O)N[C@H]1CSSC[C@@H](C(=O)N[C@@H](CCCCN)C(=O)O)NC(=O)[C@@H]2CCCN2C(=O)[C@H](CCCCN)NC(=O)[C@@H]2CCCN2C(=O)[C@@H]2CCCN2C(=O)[C@H](Cc2ccc(O)cc2)NC(=O)[C@H](CO)NC(=O)[C@H](CCCCN)NC(=O)[C@H]([C@@H](C)O)NC(=O)[C@H](Cc2c[nH]c3ccccc23)NC1=O (H-SAPRGCWTKSYPPKPCK-OH; disulfide 6-16),0.129
12,CC[C@H](C)[C@@H]1NC(=O)[C@@H]2CCCN2C(=O)[C@@H]2CCCN2C(=O)[C@H]([C@@H](C)CC)NC(=O)[C@H](CO)NC(=O)[C@H](CCCCN)NC(=O)[C@H]([C@@H](C)O)NC(=O)[C@@H](NC(=O)[C@H](CCCNC(=N)N)NC(=O)CN)CSSC[C@@H](C(=O)N[C@@H](Cc2ccccc2)C(=O)N2CCC[C@H]2C(=O)N[C@@H](CC(=O)O)C(=O)O)NC1=O,0.02
13,CC(C)C[C@H](NC(=O)[C@H](C)NC(=O)CN)C(=O)N[C@@H](CCCNC(=N)N)C(=O)NCC(=O)N[C@H]1CSSC[C@@H](C(=O)N[C@@H](CCCCN)C(=O)O)NC(=O)[C@@H]2CCCN2C(=O)[C@H](CCCCN)NC(=O)[C@@H]2CCCN2C(=O)[C@@H]2CCCN2C(=O)[C@H](Cc2ccc(O)cc2)NC(=O)[C@H](CO)NC(=O)[C@H](CCCCN)NC(=O)[C@H]([C@@H](C)O)NC(=O)[C@H](Cc2c[nH]c3ccccc23)NC1=O (H-GALRGCWTKSYPPKPCK-OH; disulfide 6-16),0.116
